Test results taken from patent US7205383B2, “Peptide ligands of leukocyte integrins” (Karyon-CTT Ltd., priority 2001, dated 2007).
Ends that are not written are not given here.

How the values were obtained:
αMβ2 integrin = target: T1, αMβ2 integrin (Homo sapiens, UniProt P11215); assay: Integrin binding assay, immunocaptured integrin (MEM170 or OKM1); conditions: for binding of GST protein to immunocaptured αMβ2 integrin: 10 μg/ml, 1 mM MnCl2, integrin captured with MEM170 or OKM1, anti-GST detection
T1 construct: integrin from a blood cell lysate was immunocaptured on microtiter wells; from tissue; host or cells: blood buffy coat lysate in octylglucoside
Method: Purified LLG-C4-GST or GST control (2 μg/well) was allowed to bind for 60 min in the absence or presence of EDTA. After washing, the bound GST protein was determined by using anti-GST antibodies. […] The experiment was repeated three times with similar results.
(§1) Integrin was immunocaptured on microtiter wells that were coated with the αM subunit antibodies OKM1 or MEM170, the αx subunit antibody TS2/4 or non-specific IgG (Dako, Carpinteria, Calif.). The antibodies were coated at a concentration of 10 μg/ml in TBS overnight at 4° C. After saturation of the wells with 5% BSA, a 200 μl aliquot of the buffy coat lysate in 1% octylglucoside/1 mM MnCl2/TBS was allowed to incubate for 2 h at 4° C. The wells were then washed five times with the octylglucoside-containing buffer. LLG-C4-GST or control GST was incubated at a concentration of 10 μg/ml in 25 mM octylglucoside TBS/1 mM MnCl2 for an hour. Following washing of the wells, the bound GST was determined with anti-GST antibodies (Amersham Pharmacia), which were labeled with an Eu^3+-chelate according to the instructions of the manufacturer (Wallac, Turku, Finland). The Eu^3+-fluorescence was measured with a 1230 Arcus fluorometer (Wallac). For examination of the I-domain binding, we used the recombinant αM I-domain expressed as a GST fusion protein in E. coli as described (Ueda et al., 1994). […] The I-domain was coated on microtiter wells at a concentration of 20 μg/ml, and the binding of LLG-C4-GST and GST was studied.

αM subunit I-domain = target: T2, αM subunit I-domain (Homo sapiens, UniProt P11215); assay: I-domain binding assay; conditions: for inhibition of LLG-C4-GST binding to the I-domain: LLG-C4-GST 10 μg/ml, peptides 100 μM, EDTA 2.5 mM; for binding to isolated I-domain of the αM subunit: 0.01–100 μg/ml, 60 min
T2 construct: GST (cleaved yes); made in house; host or cells: E. coli
Method: In FIG. 1(B), LLG-C4-GST or GST was incubated for 60 min in microtiter wells coated with purified αM subunit I-domain. The concentrations of GST proteins were as indicated. After washing, the bound GST was determined with anti-GST antibodies. The results are means ±SD from triplicate wells. The results were similar in two other experiments.
After a 60 min incubation, the wells were washed and the binding was determined with anti-GST antibodies. The results are the means ±SD from triplicate wells.
as §1

[1] = tested on: THP-1 cells (β2 integrins); conditions: for competition of THP-1 cell adhesion on LLG-C4-GST substratum: soluble pentapeptides, CLLGC at concentrations of 1 mM or higher
Method: In FIG. 2(A), phorbol ester-activated THP-1 cells were allowed to bind for 60 min to microtiter wells coated with LLG-C4-GST, GST, or albumin. EDTA was included at a 2.5 mM concentration. The bound cells were determined by the assay measuring cellular phosphatase activity. The data are the means ±SD from triplicate wells.
In FIG. 2(B), THP-1 cells were mixed with each antibody against the β1, β2, β3, αL, αM, or αX integrin subunit as indicated at a concentration of […]. An aliquot of cells was then transferred to wells coated with LLG-C4-GST and incubated for 60 min at 37° C. Following washing the bound cells were determined by the phosphatase assay. The results are the mean % adhesion ±SD of 2–4 independent experiments each done in triplicate wells.
In FIG. 3(A), TBP-1 cells were mixed in suspension with the peptide containing either the C(1–8;3–9) or C(1–9;3–8) disulfide. The final concentrations of the peptides are indicated. Cells were then incubated for 60 min at 37° C. in microtiter wells coated with LLG-C4-GST. After washing the wells, the bound cells were quantitated by the phosphatase assay. The results are the mean ±SD from triplicate wells.
In FIG. 3(B), THP-1 cell binding to LLG-C4-GST was examined in the presence of the C(1–8;3–9), CLLGC (SEQ ID NO: 4) or the CAAGC (SEQ ID NO: 5) peptide. The synthetic peptides were used at the concentrations indicated. Following a 60 min incubation the wells were washed and the bound cells were determined by the phosphatase assay.
(§2) Fibrinogen, fibronectin, von Wrlnebrand factor, type IV collagen, GST fusion proteins, Fc fusion proteins or synthetic peptides were coated on microtiter wells at a concentration of 2 μg in 50 μl TBS unless otherwise indicated. A recombinant von Willebrand factor and a capturing antibody to it kindly provided by Drs. J. J. Sixma and Ph. G. de Groot (University Medical Center Utrecht, the Netherlands) were also used. To prepare polymerized peptides, glutaraldehyde was added at a final concentration of 0.25%. The wells were saturated with 5% BSA and then washed five times with PBS. Prior to adhesion assays, cells were treated with 50 nM 40-Phorbol 12,13-dibutyrate or with 200 μM P1 peptide (Kotovuori et al., 1999) in serum-free medium for 30 min at room temperature to activate the integrins. Alternatively, cells were stimulated for 60 min at 37° C. with the phorbol ester (50 nM) and the C(1–8;3–9) and RGD-4C peptides each at a 2.5 μM concentration, after which the peptides were removed by washing with PBS/2.5 mM EDTA. Cells were incubated in the microtiter wells (100 000 cells per well) for 60 min at 37° C. in the absence or presence of competing peptides, antibodies or EDTA. Unbound cells were removed by gently washing with PBS and pressing the plate against paper towels. The bound cells were determined by an assay measuring cellular phosphatase activity. Briefly, 100 μl of 50 mM sodium acetate buffer, pH 5.0, containing 1% Triton X-100 and 6 mg/ml p-nitrophenyl phosphate was added per well and incubated for 1 h at 37° C. The reaction was stopped with 50 μl of 1 M NaOH. The absorbance at 405 nm was read on a microplate reader. Alternatively, the attached cells were stained with Crystal Violet essentially as described (Mould et al., 1995).

[2] = tested on: αXβ2 integrin-transfected L cells; assay: Adhesion of αXβ2 integrin-transfected L cells to LLG-C4-GST; format: cell-based, mouse
Method: as §2, with “Unbound cells were removed by gently washing with PBS and pressing the plate against paper towels.” left out, “Briefly, 100 μl of 50 mM sodium acetate buffer, pH 5.0, containing 1% Triton X-100 and 6 mg/ml p-nitrophenyl phosphate was added per well and incubated for 1 h at 37° C. The reaction was stopped with 50 μl of 1 M NaOH.” left out, “Alternatively, the attached cells were stained with Crystal Violet essentially as described (Mould et al., 1995).” left out

[3] = tested on: THP-1 cells on von Willebrand factor; format: cell-based; conditions: 500 μM; data not shown
Method: In FIG. 5(A), THP-1 cell binding to von Wirebrand factor was examined in the presence of antibodies against the β2 (7E4), αvβ3 (LM609) or αIIbβ3 (P2) integrins. Following a 60 min incubation in von Willebrand factor-coated wells, the bound cells were determined. The data are the mean ±SD of triplicate wells. The experiment was repeated three times.
In FIG. 5(B), TRP-1 cells were allowed to bind to microtiter wells coated with von Willebrand factor, type IV collagen, or fibronectin. The C(1–8;3–9) peptide was included as a competitor in the concentrations described. The bound cells were determined by the phosphatase assay. The data are the mean ±SD of triplicate wells and were similar in four other experiments.
as §2, with “Unbound cells were removed by gently washing with PBS and pressing the plate against paper towels.” left out, “Briefly, 100 μl of 50 mM sodium acetate buffer, pH 5.0, containing 1% Triton X-100 and 6 mg/ml p-nitrophenyl phosphate was added per well and incubated for 1 h at 37° C. The reaction was stopped with 50 μl of 1 M NaOH.” left out, “Alternatively, the attached cells were stained with Crystal Violet essentially as described (Mould et al., 1995).” left out

αMβ2 integrin (Mac-1) = target: T3, αMβ2 integrin (Mac-1) (Homo sapiens, UniProt P11215); assay: Phage display biopanning on purified integrin; format: binding; conditions: phage bound to αMβ2 integrin, CX7C and CX9C libraries, randomly selected clones
T3 construct: from tissue; host or cells: blood buffy coats (leukocytes)
Method: The αMβ2 integrin was purified by antibody affinity chromatography from buffy coats obtained from Finnish Red Cross Blood Transfusion Service as described previously (Li et al., 1995). Integrin diluted in Tris-buffered saline (TBS)/1 mM MnCl2 was coated onto microtiter wells overnight at 4° C. using one μg per well in the first biopanning and 100, 10 and 1 ng in subsequent pannings. The wells were blocked with 5% BSA in TBS for 1 h at 22° C. and then washed five times with TBS. Biopanning was performed using CX7C and CX9C phage peptide libraries essentially as described (Koivunen et al., 1994). The construction of libraries was modified so that the single-stranded DNA encoding degenerate sequences was converted into a double-stranded form using 5 cycles of PCR with only the reverse primer and then 11 cycles with both the reverse and forward primer. A total of 6 μg of the double-stranded oligonucleotide was purified using QIAGEN PCR purification kit and ligated with 42 μg of the Fuse5 phage vector. The number of recombinants in the libraries was more than 10^9. Phage binding, elution and subsequent amplification in E. coli were repeated five times, and after each panning bacterial colonies were picked up and stored in a 10 μl volume of TBS in microtiter wells at −20° C. For direct colony sequencing, one μl aliquots of the thawed samples were subjected to PCR with 10 pmol each of the forward primer 5′ […] 3′ (SEQ ID NO: 9) and the reverse primer 5′ […] 3′ (SEQ ID NO: 10). The PCR conditions were 92° C. for 30 s, 60° C. for 30 s, and 72° C. for 60 s, and the cycle number was 35. One μl aliquot of the PCR reaction was taken for sequencing using 15 pmol of either one of the primers and analyzed on an ABI 310 apparatus (PE Applied Biosystems, Foster City, Calif.).
After the fifh round of selection, the CX7C library gave a 600-fold enrichment and CX9C a 1000-fold enrichment of phage bound to the integrin in comparison to background. […] Four of them contained the LLG tripeptide motif. The two sequences most strongly enriched were CPCFLLGCC (SEQ ID NO: 3) (LLG-C4) and […] (SEQ ID NO: 11), each observed 15 times in the randomly selected clones, and these were the only clones remaining after searching for high affinity binders by using low integrin coating concentrations.

[4] = tested on: L929, K562, SKOV-3, KS6717 and Eahy96 cells; assay: Adhesion of non-leukocytic cell lines to immobilized peptide or fusion protein; format: cell-based; conditions: cells pretreated with phorbol ester or not; data not shown
Method: as §2, with “Unbound cells were removed by gently washing with PBS and pressing the plate against paper towels.” left out, “Briefly, 100 μl of 50 mM sodium acetate buffer, pH 5.0, containing 1% Triton X-100 and 6 mg/ml p-nitrophenyl phosphate was added per well and incubated for 1 h at 37° C. The reaction was stopped with 50 μl of 1 M NaOH.” left out, “Alternatively, the attached cells were stained with Crystal Violet essentially as described (Mould et al., 1995).” left out

THP-1 cells = assay: Transwell cell migration assay, LLG-C4-GST-coated filters; format: cell-based; conditions: 10% serum, 18 h
Method: The in vitro migration of THP-1 cells was studied in closely physiological conditions containing 10% serum to not interfere with adhesive properties of cells. Both the upper and lower surfaces of 8 μm pore size Transwell filters were coated with fibrinogen, LLG-C4-GST, or GST at a concentration of 40 μg/ml overnight at 4° C. Free binding sites were blocked by incubation with 5% BSA/TBS. THP-1 cells (5×10^4 in 100 μl) were plated on the upper compartment in 10% FCS-containing medium. The C(1–8;3–9) or C(1–9;3–8) peptide were included at a concentration of 200 μM. The lower compartment was filled with 750 μl of 10% FCS-containing medium. Following a culture for 18 h at 37° C. the filters were immersed in methanol for 15 min, in water for 10 s, and in 0.1% toluidine blue for 5 min. The filters were then washed 3–5 times with water until cell staining was clear. Cells were removed from the upper surface of the filter with a cotton swap, and cells migrated on the lower surface were counted microscopically. Student's t-test was used for statistical analysis.

## O=C(O)CN(CCN(CC(=O)O)CC(=O)O)CC(=O)O [EDTA, reference compound]
αMβ2 integrin; EDTA present
  inhibition of LLG-C4-GST binding to immunocaptured αMβ2 integrin: inhibited the binding of LLG-C4-GST to the integrin
αM subunit I-domain
  inhibition of LLG-C4-GST binding to the I-domain: blocked the binding
[1]; EDTA 2.5 mM
  effect of EDTA on THP-1 binding on LLG-C4-GST: completely abolished the binding
[2]; competitor
  inhibition of binding of αXβ2-transfected L cells to LLG-C4-GST: inhibited

## CAAGC (Synthetic peptide seen in Fig. 3B) [reference compound]
[1]
  competition of THP-1 cell adhesion on LLG-C4-GST substratum: weak competitor of cell adhesion
[3]
  inhibition of THP-1 binding to von Willebrand factor at 500 μM: not

## CLLGC (Synthetic peptide seen in Fig. 3B)
[1]
  competition of THP-1 cell adhesion on LLG-C4-GST substratum: readily inhibited cell adhesion
[3]
  inhibition of THP-1 binding to von Willebrand factor at 500 μM: inhibited

## CPEDLYFFC (Phage sequence bound to the alphaMbeta2 integrin (Mac-1))
αMβ2 integrin (Mac-1)
  number of isolated nucleotide sequences encoding each peptide: (3)

## CPPDLFWYC (Phage sequence bound to the alphaMbeta2 integrin (Mac-1))
αMβ2 integrin (Mac-1)
  number of isolated nucleotide sequences encoding each peptide: (4)

## CWHKDLLGC (Phage sequence bound to the alphaMbeta2 integrin (Mac-1))
αMβ2 integrin (Mac-1)
  number of isolated nucleotide sequences encoding each peptide: (4)

## CWKLLGSEEEC (Stronly enriched sequence)
αMβ2 integrin (Mac-1)
  number of isolated nucleotide sequences encoding each peptide: (15)
αMβ2 integrin (Mac-1); listed as CWKLGSEEEC
  number of isolated nucleotide sequences encoding each peptide: 15

## GST: control GST protein
αMβ2 integrin
  binding of GST protein to immunocaptured αMβ2 integrin: not GST alone
αM subunit I-domain
  binding to isolated I-domain of the αM subunit: did not bind

## LLG-C4 (1): air-oxidised synthetic biscyclic LLG-C4 preparation, highly active (CPCFLLGCC; disulfide (positions not given here))
αM subunit I-domain
  inhibition of LLG-C4-GST binding to the I-domain: blocked the ability of the I-domain to bind the LLG-C4-GST

## LLG-C4 (2): synthetic LLG-C4 preparation, inactive apparently due to disadvantageous disulfide bonding (CPCFLLGCC; disulfide (positions not given here); not fully specified)
αM subunit I-domain
  inhibition of LLG-C4-GST binding to the I-domain: did not inhibit LLG-C4-GST binding to the I-domain

## LLG-C4-GST: LLG-C4 nonapeptide expressed as GST fusion protein in E. coli (CPCFLLGCC-{GST}; cysteine pairing not given here)
αMβ2 integrin
  binding of GST protein to immunocaptured αMβ2 integrin: bound to the αMβ2 integrin in a divalent cation-sensitive manner
αM subunit I-domain
  binding to isolated I-domain of the αM subunit: concentration-dependent binding
[1]; protein coated on microtiter wells, 60 min
  binding of phorbol ester-activated THP-1 cells to coated protein: efficiently bound
[4]
  binding of non-leukocytic cell lines not expressing β2 integrins: showed no binding
[2]; p=0.016
  difference in binding of αXβ2-transfected L cells to LLG-C4-GST vs. GST: statistically significant
THP-1 cells
  cell migration on LLG-C4-GST compared with other coatings: more efficient than on fibronectin or fibrinogen coatings
THP-1 cells; filter coated at 40 μg/ml
  fold more cells migrated on LLG-C4-GST substratum than on control GST substratum: Approximately 10 fold
